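Method: 48-hour compound exposure of cells in 96-well plates, five concentrations, linear interpolation of endpoints. GI50: concentration for 50% inhibition of growth. Definition used: TGI = concentration required for complete inhibition of growth.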
Assays:
Test in all cases: NCI tumour cell line growth inhibition, 48 h
[1] = system: LOX IMVI melanoma
[2] = system: MOLT-4 leukemia
[3] = system: MDA-MB-435
[4] = system: CCRF-CEM leukemia
[5] = system: UACC-257 melanoma
[6] = system: RXF 393 renal
[7] = system: OVCAR-4 ovarian
[8] = system: NCI-H23 lung
[9] = system: T-47D breast
[10] = system: MDA-MB-231 breast
[11] = system: TK-10 renal
[12] = system: SF-295 CNS
[13] = system: SK-MEL-28 melanoma
[14] = system: NCI/ADR-RES ovarian
[15] = system: BT-549 breast
[16] = system: SK-MEL-5 melanoma
[17] = system: HL-60(TB) leukemia
[18] = system: CAKI-1 renal
[19] = system: M14 melanoma
[20] = system: K-562 leukemia
[21] = system: HOP-62 NSCLC
[22] = system: SNB-19 CNS
[23] = system: OVCAR-5 ovarian
[24] = system: UACC-62 melanoma
[25] = system: SK-OV-3 ovarian
[26] = system: UO-31 renal
[27] = system: HCT-116 colon
[28] = system: DU-145 prostate
[29] = system: HCT-15 colon
[30] = system: HOP-92 NSCLC
[31] = system: RPMI-8226 leukemia
[32] = system: HS 578T breast
[33] = system: 786-0 renal
[34] = system: COLO 205 colon
[35] = system: NCI-H226 lung
[36] = system: OVCAR-8 ovarian
[37] = system: HT29 colon
[38] = system: U251 CNS
[39] = system: EKVX NSCLC
[40] = system: SR leukemia
[41] = system: MCF7 breast
[42] = system: NCI-H460 lung
[43] = system: NCI-H522 lung
[44] = system: PC-3 prostate
[45] = system: MALME-3M melanoma
[46] = system: SW-620 colon
[47] = system: OVCAR-3 ovarian
[48] = system: SF-539 CNS
[49] = system: A549 NSCLC
[50] = system: A498 renal
[51] = system: SN12C renal
[52] = system: IGROV1 ovarian
[53] = system: SNB-75 CNS
[54] = system: ACHN renal
[55] = system: SF-268 CNS
[56] = system: SK-MEL-2 melanoma
[57] = system: HCC-2998 colon
[58] = system: KM12 colon

COc1cnc2c(c1)C(=O)c1c-2n(CCCNCC2CC2)c(=O)c2cc(F)ccc12
GI50 [1]: 0.206 µM
TGI [1]: 0.923 µM
GI50 [2]: 0.0771 µM
TGI [2]: 8.9 µM
GI50 [3]: 1.21 µM
TGI [3]: 3.98 µM
GI50 [4]: 0.19 µM
TGI [4]: 4.61 µM
GI50 [5]: 1.78 µM
TGI [5]: 5.24 µM
GI50 [6]: 0.855 µM
TGI [6]: 2.59 µM
GI50 [7]: 1.59 µM
TGI [7]: 3.67 µM
GI50 [8]: 0.577 µM
TGI [8]: 1.95 µM
GI50 [9]: 0.488 µM
TGI [9]: 3.1 µM
GI50 [10]: 0.943 µM
TGI [10]: 3.44 µM
GI50 [11]: 1.56 µM
TGI [11]: 4.66 µM
GI50 [12]: 0.295 µM
TGI [12]: 1.68 µM
GI50 [13]: 1.82 µM
TGI [13]: 4.57 µM
GI50 [14]: 0.609 µM
TGI [14]: 3.52 µM
GI50 [15]: 1.11 µM
TGI [15]: 3.88 µM
GI50 [16]: 1.14 µM
TGI [16]: 2.65 µM
GI50 [17]: 0.199 µM
TGI [17]: 1.68 µM
GI50 [18]: 0.216 µM
TGI [18]: 1.83 µM
GI50 [19]: 0.736 µM
TGI [19]: 3.08 µM
GI50 [20]: 0.229 µM
TGI [20]: 14.5 µM
GI50 [21]: 0.38 µM
TGI [21]: 2.15 µM
GI50 [22]: 0.453 µM
TGI [22]: 3.89 µM
GI50 [23]: 1.02 µM
TGI [23]: 3.07 µM
GI50 [24]: 0.561 µM
TGI [24]: 2.26 µM
GI50 [25]: 0.939 µM
TGI [25]: 2.58 µM
GI50 [26]: 0.304 µM
TGI [26]: 1.59 µM
GI50 [27]: 0.284 µM
TGI [27]: 1.4 µM
GI50 [28]: 0.475 µM
TGI [28]: 2.44 µM
GI50 [29]: 0.402 µM
TGI [29]: 1.81 µM
GI50 [30]: 1.75 µM
TGI [30]: 7.36 µM
GI50 [31]: 0.474 µM
TGI [31]: 2.87 µM
GI50 [32]: 2.49 µM
TGI [32]: 13.9 µM
GI50 [33]: 0.386 µM
TGI [33]: 1.38 µM
GI50 [34]: 0.57 µM
TGI [34]: 3.48 µM
GI50 [35]: 0.751 µM
TGI [35]: 2.02 µM
GI50 [36]: 0.801 µM
TGI [36]: 3.83 µM
GI50 [37]: 0.495 µM
TGI [37]: 2.1 µM
GI50 [38]: 0.346 µM
TGI [38]: 2.36 µM
GI50 [39]: 1.51 µM
TGI [39]: 5.64 µM
GI50 [40]: 0.117 µM
TGI [40]: 1.79 µM
GI50 [41]: 0.0766 µM
TGI [41]: 1.35 µM
GI50 [42]: 0.104 µM
TGI [42]: 0.8 µM
GI50 [43]: 0.275 µM
TGI [43]: 1.74 µM
GI50 [44]: 0.76 µM
TGI [44]: 4.93 µM
GI50 [45]: 1.03 µM
TGI [45]: 3.15 µM
GI50 [46]: 0.227 µM
TGI [46]: 1.86 µM
GI50 [47]: 1.11 µM
TGI [47]: 3.8 µM
GI50 [48]: 0.581 µM
TGI [48]: 1.92 µM
GI50 [49]: 0.262 µM
TGI [49]: 1.55 µM
GI50 [50]: 0.969 µM
TGI [50]: 4.11 µM
GI50 [51]: 0.297 µM
TGI [51]: 2.69 µM
GI50 [52]: 0.641 µM
TGI [52]: 4.33 µM
GI50 [53]: 0.48 µM
TGI [53]: 3.3 µM
GI50 [54]: 0.191 µM
TGI [54]: 0.717 µM
GI50 [55]: 1.06 µM
TGI [55]: 8 µM
GI50 [56]: 3.68 µM
TGI [56]: 8.4 µM
GI50 [57]: 0.715 µM
TGI [57]: 2.58 µM
GI50 [58]: 1.4 µM
TGI [58]: 5.73 µM

Source: PubChem BioAssay (NCI)
